{"source": "ChEMBL document CHEMBL1201862", "about": "“PubChem BioAssay data set” (2004)", "key": {"Prothrombin": {"biological_target": "Prothrombin (Homo sapiens, UniProt P00734)", "experiment": "Thrombin 1536 HTS Dose Response Confirmation. [Related pubchem assays: 1046 (Thrombin 1536 HTS; hits were confirmed in this assay)]", "type": "functional"}, "Major prion protein": {"biological_target": "Major prion protein (Homo sapiens, UniProt P04156)", "type": "functional, cell-based"}, "cells [1]": {"experiment": "cells"}, "Protein Tat": {"biological_target": "T1, Protein Tat (Human immunodeficiency virus type 1 group M subtype B (isolate HXB2)(HIV-1), UniProt P04608)", "T1 sequence (P04608 whole entry)": "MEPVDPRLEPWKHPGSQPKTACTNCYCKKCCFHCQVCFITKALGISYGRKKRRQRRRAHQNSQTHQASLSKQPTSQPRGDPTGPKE", "type": "functional"}, "[2]": {"experiment": "THP-1 cell cytotoxicity, dose response, cytotoxicity control for Vif-APOBEC3G degradation inhibitor project, THP-1 cells (AID 1117359)", "type": "functional", "details": "Human immunodeficiency virus 1, THP-1"}, "Escherichia coli": {"system": "Escherichia coli", "experiment": "microbe, parasite or virus in culture"}, "Large T antigen": {"biological_target": "Large T antigen (Simian virus 40, UniProt P03070)", "type": "functional, Betapolyomavirus macacae"}, "[3]": {"experiment": "inhibitors of SNCA 5'UTR-driven reporter translation, confirmation, H4 neuroglioma cells, luminescence (AID 1988)", "type": "functional, cell-based"}, "[4]": {"experiment": "luciferase reporter signal reduction – luminescence, H4-C neuroglioblastoma cells, dose response (AID 2458);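 note: H4 neuroglioblastoma cells stably carrying a luciferase reporter gene fusion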", "type": "functional, cell-based"}, "[5]": {"experiment": "Luminescence-based dose response cell-based high throughput screening assay for cytotoxic compounds using the IEC-6 intestinal epithelial cell line. [Related pubchem assays: 1858 (Summary AID.), 1825 (Counterscreen.), 1907 (Confirmation screen.)]", "type": "functional"}, "cells [6]": {"experiment": "cells", "type": "functional, cell-based"}, "[7]": {"experiment": "Luminescence Cell-Based Dose Response HTS to Identify Inhibitors of 5'UTR Stem-Loop Driven Prion Protein mRNA Translation in H4 Neuroglioblastoma Cells. [Related pubchem assays: 1827 (Project Summary), 1813 (Primary HTS)]", "type": "functional"}, "[8]": {"experiment": "cytotoxicity in HEK-293T cells, dose response, cytotoxicity control for TCR NF-kB inhibitor project, luminescence, T-cell screen hits (AID 489026);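 note: cells exposed to compound about 14 hours before the viability readout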", "type": "functional, cell-based"}, "[9]": {"experiment": "inhibitors of SNCA 5'UTR-driven translation, confirmation, luminescence, H4 neuroglioblastoma cells, dose confirmation (AID 2454);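 note: H4 neuroglioblastoma cells carrying an alpha-synuclein 5'UTR luciferase reporter; potency for inhibition of the luciferase signal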", "type": "functional, cell-based"}, "Kallikrein-7": {"biological_target": "Kallikrein-7 (Homo sapiens, UniProt P49862)", "experiment": "Fluorescence Intensity-based biochemical primary high throughput dose response assay to identify activators of kallikrein-7 (K7) zymogen."}, "[10]": {"experiment": "HEK293 cell cytotoxicity, dose response, cytotoxicity control, plate reader, cherry-picked samples (AID 743446)", "type": "functional, cell-based"}, "cells [11]": {"experiment": "cells", "type": "functional, cell-based", "remark": "listed apart in the source"}, "[12]": {"biological_target": "T2, Nuclear receptor subfamily 0 group B member 1 (Homo sapiens, UniProt P51843)", "T2 sequence (P51843 whole entry)": "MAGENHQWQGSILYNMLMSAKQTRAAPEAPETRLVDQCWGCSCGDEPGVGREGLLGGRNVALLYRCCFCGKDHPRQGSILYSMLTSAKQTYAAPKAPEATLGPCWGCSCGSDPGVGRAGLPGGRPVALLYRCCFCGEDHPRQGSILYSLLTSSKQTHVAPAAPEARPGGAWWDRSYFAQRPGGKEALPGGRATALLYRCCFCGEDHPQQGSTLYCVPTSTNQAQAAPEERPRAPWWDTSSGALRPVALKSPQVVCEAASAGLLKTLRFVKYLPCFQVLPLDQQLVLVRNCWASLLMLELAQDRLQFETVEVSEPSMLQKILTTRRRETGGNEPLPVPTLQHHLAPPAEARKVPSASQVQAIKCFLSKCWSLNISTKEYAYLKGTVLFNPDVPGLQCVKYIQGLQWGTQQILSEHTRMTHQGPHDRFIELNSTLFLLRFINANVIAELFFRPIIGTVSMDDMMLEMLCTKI", "type": "functional, cell-based"}, "[13]": {"experiment": "MC4R antagonists, dose response, counter-screen for LGR2 antagonist project, cell-based, plate reader, cherry pick (AID 743444);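 note: transfected HEK 293 cells stimulated with alpha-MSH peptide; potency of inhibitors of the alpha-MSH evoked signal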", "type": "functional"}, "[14]": {"experiment": "LGR2 antagonists, dose response, cell-based, HEK293, CRE-luciferase reporter, cherry pick, set 2 (AID 743343);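 note: transfected cells were stimulated with diluted bursicon conditioned medium after compound addition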", "type": "functional"}, "Cytochrome P450 2D6": {"biological_target": "Cytochrome P450 2D6 (Homo sapiens, UniProt P10635)"}, "[15]": {"experiment": "cytotoxicity toward NIH3T3 fibroblasts, dose response, counter-screen, cell-based, ATP luminescence, mouse fibroblasts (AID 2010);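 note: cells exposed to compound for about 90 hours before reading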", "type": "functional"}, "cells [16]": {"experiment": "cells", "remark": "listed apart in the source"}, "[17]": {"experiment": "inhibitors of intracellular T. cruzi replication, confirmation, NIH3T3 host cells, beta-gal luminescence (AID 2044);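 note: luminescent beta-galactosidase reporter signal from transgenic T. cruzi replicating inside host cells; inhibitors lower the luminescence signal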", "type": "functional, cell-based"}, "Cytochrome P450 3A4": {"biological_target": "Cytochrome P450 3A4 (Homo sapiens, UniProt P08684)"}, "[18]": {"biological_target": "T3, Long-chain-fatty-acid--AMP ligase FadD28 (Mycobacterium tuberculosis, UniProt P9WQ59)", "T3 sequence (P9WQ59 whole entry)": "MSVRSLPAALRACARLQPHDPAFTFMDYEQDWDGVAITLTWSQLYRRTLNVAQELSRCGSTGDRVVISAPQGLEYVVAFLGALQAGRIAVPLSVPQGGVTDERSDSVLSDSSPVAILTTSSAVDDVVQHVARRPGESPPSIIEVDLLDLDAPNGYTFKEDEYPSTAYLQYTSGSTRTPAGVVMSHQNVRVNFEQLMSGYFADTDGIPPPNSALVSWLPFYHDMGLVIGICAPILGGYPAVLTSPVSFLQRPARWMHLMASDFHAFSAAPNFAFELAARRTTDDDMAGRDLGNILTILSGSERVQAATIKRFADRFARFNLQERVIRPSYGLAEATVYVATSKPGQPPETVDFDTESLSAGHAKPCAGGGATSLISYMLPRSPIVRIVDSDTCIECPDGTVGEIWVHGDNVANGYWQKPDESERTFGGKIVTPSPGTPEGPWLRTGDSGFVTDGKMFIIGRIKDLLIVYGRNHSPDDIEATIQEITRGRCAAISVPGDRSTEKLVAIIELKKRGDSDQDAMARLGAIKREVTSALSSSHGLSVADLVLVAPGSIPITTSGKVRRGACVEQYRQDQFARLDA", "experiment": "Fluorescence polarization aasay to screen for inhibitors that compete for the binding of FadD28 to a bisubstrate Measured in Biochemical System Using Plate Reader - 2147-01_Inhibitor_Dose_CherryPick_Activity.", "type": "functional, Mycobacterium tuberculosis H37Rv"}, "[19]": {"biological_target": "T4, Heat shock factor protein 1 (Mus musculus, UniProt P38532)", "T4 sequence (P38532 whole entry)": "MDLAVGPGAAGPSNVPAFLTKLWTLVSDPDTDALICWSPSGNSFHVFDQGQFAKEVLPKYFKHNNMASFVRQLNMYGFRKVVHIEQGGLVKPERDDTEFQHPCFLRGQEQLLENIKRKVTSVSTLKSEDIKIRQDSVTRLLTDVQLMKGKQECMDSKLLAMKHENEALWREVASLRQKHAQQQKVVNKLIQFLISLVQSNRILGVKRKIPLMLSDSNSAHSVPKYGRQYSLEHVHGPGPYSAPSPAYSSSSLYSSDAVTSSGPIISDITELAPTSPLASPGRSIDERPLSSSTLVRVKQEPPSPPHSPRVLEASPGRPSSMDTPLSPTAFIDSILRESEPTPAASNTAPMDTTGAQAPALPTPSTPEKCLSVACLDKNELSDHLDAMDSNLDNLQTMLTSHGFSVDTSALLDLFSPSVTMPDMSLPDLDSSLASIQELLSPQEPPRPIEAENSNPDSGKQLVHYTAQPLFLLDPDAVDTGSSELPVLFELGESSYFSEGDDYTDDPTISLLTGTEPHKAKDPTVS", "experiment": "inhibition of MG132-induced HSE-luciferase signal, confirmation, cell-based, NIH3T3, luminescence, dose retest (AID 2382);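 note: NIH3T3 fibroblasts with HSF1-driven luciferase reporter stressed by proteasome inhibitor MG132; luminescence from HSF1-driven luciferase expression after 8 hours of MG132 stress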", "type": "functional"}}, "note": "The source made the active and inactive calls.", "data": [{"smiles": "COc1ccc(N(C(=O)c2ccco2)S(=O)(=O)c2ccccc2)cc1", "values": [{"measurement": "IC50", "setting": "Prothrombin", "value": "4.64 µM (active)"}]}, {"smiles": "COc1ccc(S(=O)(=O)N2CCOCC2)cc1NC(=O)CSc1ncnc2ccccc12", "values": [{"measurement": "IC50", "setting": "Major prion protein", "value": "2.66 µM (active)"}, {"measurement": "IC50", "setting": "cells [1]", "value": "> 138 µM (inactive)"}]}, {"smiles": "Cc1c(NC(=O)CN2CCN(c3ccc(O)cc3)CC2)c(=O)n(-c2ccccc2)n1C", "values": [{"measurement": "IC50", "setting": "Protein Tat", "value": "> 100 µM (active)"}, {"measurement": "CC50", "setting": "[2]", "value": "> 40 µM (active)"}, {"measurement": "AC50", "setting": "Escherichia coli", "value": "38.1 µM (active)"}, {"measurement": "IC50", "setting": "Large T antigen", "value": "13.7 µM (active)"}]}, {"smiles": "CC/C=C/CC(=O)N[C@@H](c1ccccc1)[C@@H](O)C(=O)O[C@H]1C[C@@]2(O)[C@@H](OC(=O)c3ccccc3)C3[C@](C)(C(=O)[C@H](OC(C)=O)C(=C1C)C2(C)C)[C@@H](O)C[C@H]1OC[C@@]31OC(C)=O", "note": "(some centres undefined)", "values": [{"measurement": "EC50", "setting": "[3]", "value": "< 0.1 µM (active)"}, {"measurement": "EC50", "setting": "[4]", "value": "0.062 µM (active)"}, {"measurement": "IC50", "setting": "[5]", "value": "0.0795 µM (active)"}, {"measurement": "EC50", "setting": "cells [6]", "value": "0.307 µM (active)"}, {"measurement": "EC50", "setting": "[7]", "value": "< 0.1 µM (active)"}, {"measurement": "IC50", "setting": "[8]", "value": "> 80 µM (inactive)"}, {"measurement": "EC50", "setting": "[9]", "value": "0.021 µM (active)"}]}, {"smiles": "COc1ccc(NC(=O)c2ccc(S(=O)(=O)N3CC(C)CC(C)C3)cc2)cc1S(N)(=O)=O", "note": "(centres undefined)", "values": [{"measurement": "EC50", "setting": "Kallikrein-7", "value": "14.7 µM (inactive)"}]}, {"smiles": "Cc1cc(C(=O)CSc2nnc(N)s2)c(C)n1Cc1cccs1", "values": [{"measurement": "AC50", "setting": "[10]", "value": "> 52 µM (inactive)"}, {"measurement": "IC50", "setting": "cells [11]", "value": "> 67.5 µM (inactive)"}, {"measurement": "IC50", "setting": "[12]", "value": "> 0.278 µM (active)"}, {"measurement": "AC50", "setting": "[13]", "value": "4.27 µM (active)"}, {"measurement": "AC50", "setting": "[14]", "value": "3.93 µM (active)"}]}, {"smiles": "CC1=C(C#N)C(=O)N(C)C(C)(C)C1", "values": [{"measurement": "IC50", "setting": "Protein Tat", "value": "> 100 µM (active)"}]}, {"smiles": "Cc1ccc(CCN2CC(C(=O)NCCCN(C)Cc3ccccc3)CC2=O)cc1", "note": "(centres undefined)", "values": [{"measurement": "AC50", "setting": "Cytochrome P450 2D6", "value": "14.1 µM (inconclusive)"}, {"measurement": "EC50", "setting": "[15]", "value": "15.8 µM (active)"}, {"measurement": "EC50", "setting": "cells [16]", "value": "0.033 µM (active)"}, {"measurement": "EC50", "setting": "[17]", "value": "< 0.1 µM (active)"}, {"measurement": "AC50", "setting": "Cytochrome P450 3A4", "value": "31.6 µM (inconclusive)"}]}, {"smiles": "O=C(COC(=O)c1cccc(NS(=O)(=O)c2ccc(F)c(F)c2)c1)NC(=O)NC1CCCCC1", "values": [{"measurement": "AC50", "setting": "[18]", "value": "19.9 µM (active)"}]}, {"smiles": "CN(C)CCN(C(=O)c1ccc(S(=O)(=O)N(C)C)cc1)c1nc2cc3c(cc2s1)OCCO3", "values": [{"measurement": "EC50", "setting": "[15]", "value": "> 30 µM (not active)"}, {"measurement": "EC50", "setting": "cells [16]", "value": "0.069 µM (active)"}, {"measurement": "EC50", "setting": "[17]", "value": "< 0.1 µM (active)"}]}, {"smiles": "OC1CCN(Cc2cccc(Oc3ccccc3)c2)CC1", "values": [{"measurement": "EC50", "setting": "[15]", "value": "> 30 µM (not active)"}, {"measurement": "EC50", "setting": "cells [16]", "value": "0.073 µM (active)"}, {"measurement": "EC50", "setting": "[19]", "value": "> 195 µM (not active)"}, {"measurement": "EC50", "setting": "[17]", "value": "< 0.1 µM (active)"}]}]}
